Three compounds from US20060258571A1, “Antibacterial ester macrocycles” (priority 2002, published 2006) can be followed below.

Where a name gives a salt, the structure may show the parent alone.

Experiment [1] has as its system S. aureus 133. In words: Minimum inhibitory concentration (MIC), liquid dilution test. Type of experiment: cell-based. The following applies: minimal medium with 0.4% BH broth, 37° C., 18-24 h. The text has this:
(§1) Determination of the Minimum Inhibitory Concentration (MIC):
(§2) The inhibitor concentration can in these cases be determined by standard microbiological methods (see, for example, The National Committee for Clinical Laboratory Standards. Methods for dilution antimicrobial susceptibility tests for bacteria that grow aerobically; approved standard-fifth edition. NCCLS document M7-A5 [ISBN 1-56238-394-9]. NCCLS, 940 West Valley Road, Suite 1400, Wayne, Pa. 19087-1898 USA, 2000). The MIC of the compounds of the invention is determined in the liquid dilution test on the 96-well microtiter plate scale. The bacterial microbes are cultivated in a minimal medium (18.5 mM Na2HPO4, 5.7 mM KH2PO4, 9.3 mM NH4Cl, 2.8 mM MgSO4, 17.1 mM NaCl, 0.033 μg/ml thiamine hydrochloride, 1.2 μg/ml nicotinic acid, 0.003 μg/ml biotin, 1% glucose, 25 μg/ml of each proteinogenic amino acid with the exception of phenylalanine; [H.-P. Kroll; unpublished]) with addition of 0.4% BH broth (test medium). In the case of Enterococcus faecalis ICB 27159, heat-inactivated fetal calf serum (FCS; GibcoBRL, Germany) is added to the test medium in a final concentration of 10%. Overnight cultures of the test microbes are diluted to an OD578 of 0.001 (to 0.01 in the case of Enterococci) in fresh test medium, and incubated 1:1 with dilutions of the test substances (1:2 dilution steps) in test medium (150 μl final volume). The cultures are incubated at 37° C. for 18-24 hours; Enterococci in the presence of 5% CO2.
(§3) The lowest substance concentration in each case at which bacterial growth was no longer visible is defined as the MIC. […] The compounds show a graded antibacterial effect against most of the test microbes.

Experiment [2] concerns S. aureus 133 Translation. Briefly: In vitro transcription-translation with S. aureus extracts. Type of experiment: biochemical. The following applies: S30 extract, plasmid p1a template, firefly luciferase, 30° C. 60 min. The text has this:
(§4) In Vitro Transcription-Translation with S. aureus Extracts
(§5) Construction of an S. aureus Luciferase Reporter Plasmid
(§6) A reporter plasmid which can be used in an in vitro transcription-translation assay for S. aureus is constructed by using the plasmid pBESTluc (Promega Corporation, USA). The E. coli tac promoter present in this plasmid in front of the firefly luciferase is replaced by the capA1 promoter with appropriate Shine-Dalgarno sequence from S. aureus. The primers CAPFor 5′-CGGCCAAGCTTACTCGGAT-[…] […]-3′ and CAPRev 5′-[…]-3′ are used for this. The primer CAPFor contains the capA1 promoter, the ribosome binding site and the 5′ region of the luciferase gene. After PCR using pBESTluc as template it is possible to isolate a PCR product which contains the firefly luciferase gene with the fused capA1 promoter. This is, after restriction with ClaI and HindIII, ligated into the vector pBESTluc which has likewise been digested with ClaI and HindIII. The resulting plasmid p1a is able to replicate in E. coli and be used as template in the S. aureus in vitro transcription-translation assay.
(§7) Preparation of S30 Extracts from S. aureus
(§8) Six liters of BHI medium are inoculated with a 250 ml overnight culture of an S. aureus strain and allowed to grow at 37° C. until the OD600 nm is 2-4. The cells are harvested by centrifugation and washed in 500 ml of cold buffer A (10 mM Tris acetate, pH 8.0, 14 mM Mg acetate, 1 mM DTT, 1 M KCl). After renewed centrifugation, the cells are washed in 250 ml of cold buffer A with 50 mM KCl, and the resulting pellets are frozen at −20° C. for 60 min. The pellets are thawed on ice in 30 to 60 min and taken up to a total volume of 99 ml in buffer B (10 mM Tris acetate, pH 8.0, 20 mM Mg acetate, 1 mM DTT, 50 mM KCl). 1.5 ml portions of lysostaphin (0.8 mg/ml) in buffer B are each introduced into 3 precooled centrifuge cups and each mixed with 33 ml of the cell suspension. The samples are incubated at 37° C., shaking occasionally, for 45 to 60 min, before 150 μl of a 0.5 M DTT solution are added. The lyzed cells are centrifuged at 30 000×g and 4° C. for 30 min. The cell pellet is taken up in buffer B and then centrifuged again under the same conditions, and the collected supernatants are combined. […]
(§9) Inhibition of protein biosynthesis of the compounds can be shown in an in vitro transcription-translation assay. […] The activity of the resulting luciferase can be detected by luminescence measurement. […]

Experiment [3] concerns E. coli MRE600 Translation. In words: In vitro transcription-translation with E. coli extracts. The following applies: S30 extract, pBESTLuc template, firefly luciferase, 30° C. 60 min. Type of experiment: biochemical, Escherichia coli. The procedure:
In Vitro Transcription-Translation with E. coli Extracts
An S30 extract is prepared by harvesting logarithmically growing Escherichia coli MRE 600 (M. Müller; University Freiburg), washing and employing them as described for the in vitro transcription-translation assay (Müller, M. and Blobel, G. Proc Natl Acad Sci USA (1984) 81, pp. 7421-7425).
1 μl of cAMP (11.25 mg/ml) are additionally added per 50 μl of reaction mix to the reaction mix for the in vitro transcription-translation assay. The assay mixture amounts to 105 μl, with 5 μl of the substance to be tested being introduced in 5% strength DMSO. 1 μg/100 pt of mixture of the plasmid pBESTLuc (Promega, Germany) are used as transcription template. After incubation at 30° C. for 60 min, 50 pt of luciferin solution (20 mM tricine, 2.67 mM MgSO4, 0.1 mM EDTA, 33.3 mM DTT pH 7.8, 270 μM CoA, 470 μM luciferin, 530 μM ATP) are added, and the resulting bioluminescence is measured in a luminometer for 1 minute. The IC50 is indicated by the concentration of an inhibitor which leads to 50% inhibition of the translation of firefly luciferase.

In experiment [4] the test system is S. aureus RN4220. Briefly: Minimum inhibitory concentration (MIC), liquid dilution test. The note with it: Staphylococcus aureus, minimal medium with 0.4% BH broth, 37° C., 18-24 h. The class given is cell-based.
Excerpt: as §1, §2, §3

The subject of experiment [5] is B. catarrhalis M3. Described as above. The class given is cell-based. The note with it: Moraxella catarrhalis, minimal medium with 0.4% BH broth, 37° C., 18-24 h.
Excerpt: as §1, §2, §3

Experiment [6] has as its system S. aureus 25701. The experiment is described as above. The class given is cell-based. The following applies: Staphylococcus aureus, minimal medium with 0.4% BH broth, 37° C., 18-24 h.
Excerpt: as §1, §2, §3

The subject of experiment [7] is Enterococcus faecalis ICB 27159. The description is as above. The class given is cell-based. The following applies: ICB27159, test medium with 10% heat-inactivated FCS, 5% CO2, 37° C., 18-24 h, read-out: MIC E. faecalis ICB 27159.
Excerpt: as §1, §2, §3

Experiment [8] relates to S. aureus RN4220 Translation. Briefly: In vitro transcription-translation with S. aureus extracts. The class given is biochemical. The note with it: S30 extract, plasmid p1a template, firefly luciferase, 30° C. 60 min.
Excerpt: as §4, §5, §6, §7, §8, §9

For orientation: MIC means the lowest concentration found to suppress growth. Usually IC50 stands for the concentration needed to halve the response being measured. Higher therefore signals a need for much substance. In experiment [1], “2-Aminoethyl-(8S,11S,14S)-14-amino-11-[(2R)-3-amino-2-hydroxypropyl]-5,17-dihydroxy-9-methyl-10,13-dioxo-9,12-diazatricyclo[14.3.1.1^2,6]henicosa-1(20),2(21),3,5,16,18-hexaene-8-carboxylate trihydrochloride [Example 10]” gave an MIC of 3.1 µM. The compound also displayed a 50% inhibitory concentration (IC50) in experiment [2] of 0.7 µM.
`COC(=O)[C@@H]1Cc2cc(ccc2O)-c2ccc(O)c(c2)C[C@H](N)C(=O)N[C@@H](C[C@@H](O)CN)C(=O)N1` [Example 1, Methyl(8S,11S,14S)-14-amino-11-[(2R)-3-amino-2-hydroxypropyl]-5,17-dihydroxy-10,13-dioxo-9,12-diazatricyclo[14.3.1.1^2,6]henicosa-1(20),2(21),3,5,16,18-hexaene-8-carboxylate dihydrochloride]: the IC50 in experiment [3] was 0.5 µM; in experiment [8] it was 1.7 µM; in experiment [2], 0.5 to 3 µM. Moreover, the MIC in experiment [4] turned out to be 0.4 µM; in experiment [1] (Staphylococcus aureus, 133), 3.13 µM; in experiment [5], 1.56 µM; in experiment [6], 12.5 µM; in experiment [7] it was 1.56 µM.
For `CCOC(=O)[C@@H]1Cc2cc(ccc2O)-c2ccc(O)c(c2)C[C@H](N)C(=O)N[C@@H](C[C@@H](O)CN)C(=O)N1` [Example 2, Ethyl(8S,11S,14S)-14-amino-11-[(2R)-3-amino-2-hydroxypropyl]-5,17-dihydroxy-10,13-dioxo-9,12-diazatricyclo[14.3.1.1^2,6]henicosa-1(20),2(21),3,5,16,18-hexaene-8-carboxylate dihydrochloride], the values for the IC50 in experiment [3] and in experiment [2] were 0.2 µM and 2.4 to 4.3 µM, respectively. Further, the MIC is 0.78 µM in experiment [1] (Staphylococcus aureus, 133) and 6.25 µM in experiment [5].
